# Measured values taken from patent publication US20250367113A1, “DRUG DELIVERY SYSTEM COMPRISING AN ANTI-INFLAMMATORY AGENT OR A SALT THEREOF FOR THE APPLICATION TO ESOPHAGEAL MUCOUS MEMBRANES” (EsoCap AG, priority 2022, published 2025).
# Columns and labels:
# [1] = system: refractory eosinophilic esophagitis; conditions: systemically administered, small case series; cited from earlier work
# eotaxin-3 secretion = conditions: cells from eosinophilic esophagitis patients; cited from earlier work
# [2] = UV/Vis spectroscopy of tofacitinib content and spectrum in the polymer film; format: physicochemical; conditions: citrate buffer, pH 4.0 with 20% methanol
# Experimental: Further, the film was analyzed for the content of tofacitinib. To this end, 6 circular samples with a diameter of 1.9 cm (2.84 cm^2) were cut at random positions of the film and analyzed with a UV/Vis spectroscopy in a citrate buffer, pH 4.0 with 20% methanol. The absorption spectrum is shown in FIG. 10 in comparison to a reference sample (tofacitinib solved in citrate buffer, pH 4.0 with 20% methanol).
# eosinophilic esophagitis = conditions: person, after 3 months of treatment; cited from earlier work
# atopic dermatitis = conditions: placebo-controlled phase IIa study; cited from earlier work
# [3] = system: refractory oral graft-versus-host disease; conditions: single case, cited from earlier work
smiles,measurement,setting,value
Sc1ncnc2nc[nH]c12 [6-mercaptopurine],efficacy in the treatment of refractory eosinophilic esophagitis,[1],efficient
NC(=O)c1cnc(NCCc2ccc(O)c(Cl)c2)nc1NCc1ccccc1 [AS1517499],eotaxin-3 secretion by epithelial cells and fibroblasts,eotaxin-3 secretion,block eotaxin-3 secretion
"C[C@@H]1CCN(C(=O)CC#N)C[C@@H]1N(C)c1ncnc2[nH]ccc12 [Tofacitinib, tofacitinib]",stability of tofacitinib in the film (absorption spectrum versus reference sample),[2],can be stably prepared in a film
same,appearance of the esophagus,eosinophilic esophagitis,significantly improve the appearance of the esophagus
same,number of eosinophils found in esophageal biopsies,eosinophilic esophagitis,least number of eosinophils found in esophageal biopsies
same,results of topical treatment of atopic dermatitis,atopic dermatitis,convincing results
Cn1cnc([N+](=O)[O-])c1Sc1ncnc2nc[nH]c12 [azathioprine],efficacy in the treatment of refractory eosinophilic esophagitis,[1],efficient
same,tolerability,[3]; additional topical administration,well tolerated
same,clinical benefit of additional topical administration,[3]; topically and systemically administered suspension,seemed to add some clinical benefit
Cc1oncc1C(=O)Nc1ccc(C(F)(F)F)cc1 [leflunomide],eotaxin-3 secretion by epithelial cells and fibroblasts,eotaxin-3 secretion,block eotaxin-3 secretion
